The values that follow come from PubChem BioAssay AID1259407 (Chemical Carcinogenesis Research Information System (CCRIS), 2018).

The source made the active and inactive calls. No rule for the calls is given here.

The subject of the series is CCRIS mutagenicity, Ames/micronucleus/aberration tests. As to the kind of experiment: CCRIS mutagenicity studies.
Setting [1] is: Test System: AMES SALMONELLA TYPHIMURIUM, Strain/Indicator: TA98, Metabolic Activation: NONE, Method: PREINCUBATION

Regarding `COc1c2ccoc2nc2c(OC)cccc12`, the mutagenic call by setting is: (Test System: AMES SALMONELLA TYPHIMURIUM, Strain/Indicator: TA98, Metabolic Activation: RAT, LIVER, MICROSOMES, PHENOBARBITAL, Method: STANDARD PLATE) “active; positive”; (Test System: AMES SALMONELLA TYPHIMURIUM, Strain/Indicator: TA98, Metabolic Activation: RAT, LIVER, S-9, PHENOBARBITAL, Method: STANDARD PLATE) “active; positive”; (Test System: AMES SALMONELLA TYPHIMURIUM, Strain/Indicator: TA100, Metabolic Activation: RAT, LIVER, MICROSOMES, PHENOBARBITAL, Method: STANDARD PLATE) “active; positive”; (Test System: AMES SALMONELLA TYPHIMURIUM, Strain/Indicator: TA100, Metabolic Activation: RAT, LIVER, S-9, PHENOBARBITAL, Method: STANDARD PLATE) “active; positive”; (Test System: AMES SALMONELLA TYPHIMURIUM, Strain/Indicator: TA1535, Metabolic Activation: RAT, LIVER, MICROSOMES, PHENOBARBITAL, Method: STANDARD PLATE) “inactive; negative”; (Test System: AMES SALMONELLA TYPHIMURIUM, Strain/Indicator: TA1538, Metabolic Activation: RAT, LIVER, MICROSOMES, PHENOBARBITAL, Method: STANDARD PLATE) “active; positive”.

Consider `Cc1cccc2cccnc12`, for which the mutagenic call was “active; positive” (Test System: AMES SALMONELLA TYPHIMURIUM, Strain/Indicator: TA98, Metabolic Activation: HAMSTER, LIVER, S-9, AROCLOR 1254 (30%), Method: PREINCUBATION); “inactive; negative” under setting [1]; “inactive; negative” (Test System: AMES SALMONELLA TYPHIMURIUM, Strain/Indicator: TA98, Metabolic Activation: RAT, LIVER, S-9, AROCLOR 1254 (30%), Method: PREINCUBATION); “active; positive” (Test System: AMES SALMONELLA TYPHIMURIUM, Strain/Indicator: TA100, Metabolic Activation: HAMSTER, LIVER, S-9, AROCLOR 1254 (30%), Method: PREINCUBATION); “inactive; negative” (Test System: AMES SALMONELLA TYPHIMURIUM, Strain/Indicator: TA100, Metabolic Activation: NONE, Method: PREINCUBATION); “inactive; negative” (Test System: AMES SALMONELLA TYPHIMURIUM, Strain/Indicator: TA100, Metabolic Activation: RAT, LIVER, S-9, AROCLOR 1254 (30%), Method: PREINCUBATION). In addition, the mutagenic call is “inactive; negative” (Test System: AMES SALMONELLA TYPHIMURIUM, Strain/Indicator: TA100, Metabolic Activation: S-9, Method: PREINCUBATION) and “active; positive” (Test System: UDS RODENT HEPATOCYTES, Strain/Indicator: THY INCORP (NON-S-PHASE), Metabolic Activation: NONE, Method: AUTORADIOGRAPHY).

Take `O=c1[nH]cc(CO)c(=O)[nH]1`: the mutagenic call (Test System: CHINESE HAMSTER V-79, Strain/Indicator: V-79 (HPRT)/6-THIOGUANINE, Metabolic Activation: NONE, Method: STANDARD PLATE) was “inactive; negative”.

On to `CC(C)OC(=O)C=Cc1ccc([N+](=O)[O-])o1`, for which, under setting [1], the mutagenic call was “active; positive”.
